Experimental data from patent US10233157B2, “SIK inhibitor for use in a method of treating an inflammatory and/or immune disorder” (Dana-Farber Cancer Institute, Inc., priority 2012, dated 2019).
Entries after “also recorded” stand apart in the source; their conditions may differ.

Experiments:
[1] = test system: Brain-Specific Kinases (BRSKs); experiment: Kinase assays, BRSKs; type: biochemical; settings: in vitro
Procedure: FLAG-CRTC3 was immunoprecipitated using anti-FLAG M2 agarose, washed in kinase buffer (50 mM Tris/HCl pH 7.4, 10 mM Mg acetate, 0.1 mM EGTA, 2 mM DTT) and reactions initiated by adding 4 U/ml recombinant kinase with 0.1 mM ATP (specific activity 3000 cpm/pmol). Phosphorylation of CRTC3 was monitored by autoradiography as well as immunoblotting using phosphospecific antibodies raised against Ser162, Ser329 and Ser370.

[2] = test system: TLR-stimulated macrophages; experiment: qPCR of CREB-dependent gene mRNA in TLR-stimulated macrophages; type: cell-based, mouse
Procedure: Bone-marrow derived macrophages were differentiated for 7 days in DMEM supplemented with 5 ng/ml recombinant M-CSF (R&D systems), 2 mM glutamine, 10% foetal calf serum, penicillin and streptomycin. […]
mRNA was extracted from macrophages using the RNeasy Micro Kit following the manufacturers' instructions (Qiagen). cDNA was generated from 1 μg of total RNA using the iScript cDNA synthesis kit and quantified by qPCR using the SsoFast EvaGreen Supermix on a CFX96 real time system (Bio-Rad Laboratories). The relative expression of each gene was calculated from Ct values using the Pfaffl method^30 and was normalized against the mRNA levels of 18S RNA. The following primers were used: IL-10-F, […]; IL-10-R, […]; c-Fos-F, […]; c-Fos-R, […]; nurr1-F, […]; nurr1-R, […]; nurr77-F, […]; nurr77-R, […]; 18S-F, […]; 18S-R, […]; IL-1ra-F, […]; IL-1ra-R, […]; SPHK1-F, […]; SPHK1-R, […]; LIGHT-F, […]; LIGHT-R, […]; ArgI-F, […]; ArgI-R, […]; IFN-F, […]; IFNγ-R, […].
[…]. Biochem J 434:93-104) using the indicated antibodies. RNA was extracted using the RNeasy Micro Kit (Qiagen). cDNA was generated using the iScript cDNA synthesis kit and quantified by qPCR using the SsoFast EvaGreen Supermix (Bio-Rad Laboratories). The relative expression of each gene was calculated from Ct values using the Pfaffl method (Pfaffl M W (2001) A new mathematical model for relative quantification in real-time RT-PCR. Nucleic Acids Res 29:e45) and was normalized against the mRNA levels of 18S or GAPDH RNA. Fold-induction for each gene was reported relative to untreated control cells, which was set to 1. The concentrations of TNFα, IL-6, IL-10, IL-12p40, and RANTES in culture supernatants were measured using the Bio-Plex Pro Assay system from Bio-Rad. Further details in supplementary information.
mRNA was extracted from cells using the RNeasy Micro Kit following the manufacturers' instructions (Qiagen). cDNA was generated from 1 μg of total RNA using the iScript cDNA synthesis kit and quantified by qPCR using the SsoFast EvaGreen Supermix on a CFX96 real time system (Bio-Rad Laboratories). The relative expression of each gene was calculated from Ct values using the Pfaffl method (5) and was normalized against the mRNA levels of 18S RNA or GAPDH. Results are reported relative to untreated control cells, which was set to 1. The following primers were used: […]

CRTC3 = CRTC3 phosphorylation in macrophages (phosphoproteomics, immunoblotting); type: cell-based
Procedure: RAW264.7 cells were labelled using the Stable Isotope Labelling of Amino Acids in Cell Culture (SILAC) method. […] The cells were lysed in detergent-free lysis buffer (8 M urea, 50 mM Tris pH8.2, 10 mM glycerol 2-phosphate, 50 mM sodium fluoride, 5 mM sodium pyrophosphate, 1 mM EDTA, 1 mM sodium orthovanadate, 10 mM DTT, 1 mM PMSF, 1 μg/ml aprotinin, 1 μg/ml leupeptin), the extract clarified by centrifugation and protein concentration determined using the Bradford method. 2 mg of cell extract protein from each experimental condition were mixed in a 1:1:1 ratio and then alkylated with 50 mM iodoacetamide for 30 min. […] Phosphopeptides from these samples were enriched using a standard Fe^3+-IMAC enrichment protocol^32 and measured by LC-MS/MS. […] The data was analysed using MaxQUANT^33.
Cells were rinsed in ice-cold PBS and extracted in lysis buffer (50 mM Tris/HCl pH 7.4, 1 mM EDTA, 1 mM EGTA, 50 mM NaF, 5 mM sodium pyrophosphate, 10 mM sodium β-glycerol 1-phosphate, 1 mM dithiothreitol, 1 mM sodium orthovanadate, 0.27 M sucrose, 1% (v/v) Triton X-100, 1 μg/ml aprotinin, 1 μg/ml leupeptin and 1 mM phenylmethylsulphonyl fluoride). Cell extracts were clarified by centrifugation at 14000×g for 10 min at 4° C. and protein concentrations were determined using the Bradford assay. […]

[3] = LPS-stimulated macrophages with MRT67307

O=C(NCCCNc1nc(Nc2cccc(CN3CCOCC3)c2)ncc1C1CC1)C1CCC1 [MRT67307]
inhibition of BRSKs [1]: did not inhibit
time at which IL-10 mRNA levels reach a maximum [2, 3]: 1 h
time at which IL-10 mRNA returns to near basal levels [2, 3]: 4 h
mRNA of CREB-dependent genes c-fos, nurr1 and nurr77 ([2]; TLR-stimulated macrophages): increase
IL-10 mRNA ([2]; TLR/LPS-stimulated macrophages): dramatically increased
phosphorylation of CRTC3 (CRTC3; 2 μM MRT67307, Pam3CSK4-stimulated macrophages, phosphoproteomic study): robustly dephosphorylated at Ser62, Ser329 and Ser370; also recorded: blocked
phosphorylation of CRTC3 at Ser370 (CRTC3; LPS stimulation): blocked
